In paper PMC4706618, “Comparison of bactericidal and cytotoxic activities of trichogin analogs” (Data in Brief, 2015):
≈ marks a conversion by molar mass, not a printed value. Where two headings read alike, the source gives them in different places. Non-standard residues stand in square brackets, D forms with d. Residues, ends and D or L forms follow the SMILES beside them. *: point of attachment. Leu(ol) = CC(C)C[C@H](N)CO; Octanoyl = CCCCCCCC(=O)*; Aib = CC(C)(N)C(=O)O

Columns and labels:
[1] = system: S. aureus, ATCC BAA-44 (methicillin-resistant strain); assay type: cell-based, Staphylococcus aureus
Procedure: (§1) E. coli ATCC 25922, the methicillin-resistant strain of S. aureus, ATCC BAA-44, P. aeruginosa ATCC 25668 and S. epidermidis ATCC 700565 was a kind gift of Prof. Elena Reddi (Dept. of Biology, University of Padova, Italy). Cultures were maintained in Luria Bertani (LB) agar. MICs (Minimal inhibitory concentrations) of the peptides were determined using the broth microdilution method. Two-fold serial dilutions of each peptide, from 1 to 64 μM, were prepared in LB and 50 μl per well were arranged in sterile 96-well plates (Falcon). Then, an aliquot of bacterial cell suspension was added to each well, at a final concentration of 5×10^5 CFU/ml.

[2] = system: E. coli ATCC 25922; assay type: cell-based, Escherichia coli
Procedure: as §1

[3] = system: P. aeruginosa ATCC 25668; assay type: cell-based, Pseudomonas aeruginosa
Procedure: as §1

[4] = system: S. epidermidis ATCC 700565; assay type: cell-based, Staphylococcus epidermidis
Procedure: as §1

[5] = system: Gram^− and Gram^+ bacteria; test: Antibacterial activity, all strains taken together; assay type: cell-based; settings: additional U at position 6 or U1 replaced with L; in words
Procedure: as §1

[6] = system: human cells (lymphocytes, PMNs, monocytes, HL60, HeLa, A431, A549, CCD34Lu); test: Cytotoxicity on human cells, MTS reduction and LDH release; assay type: cell-based; settings: 24 h, MTS/LDH EC50, all tested cells; in words
Procedure: (§2) To monitor the possible differential cytocidal effect of trichogin and its analogs on human cells (healthy and cancer cells, non-leukocytes and leukocytes), we incubated the peptides with (i) primary human leukocytes (lymphocytes, PMNs and monocytes), freshly isolated from blood of healthy donors (ii) the monocytes-like HL60 cell line from human myeloid leukemia, and (iii) three tumor-derived non-leukocyte cells lines: HeLa ([…]), A431 (human epidermoid carcinoma) and A549 (human lung carcinoma) and the in vitro stabilized line CCD34Lu (from human normal lung).
(§3) HeLa, A431 and CCD34-Lu cells were maintained in DMEM medium (Gibco), A549 in F12 medium (Gibco) and HL60 in RPMI medium (Gibco), supplemented with 10% FCS (Euroclone) and antibiotics (penicillin and streptomycin, 100 U/ml, Invitrogen) at 37 °C in a humidified atmosphere containing 5% (v/v) CO2; cells were split every 2–3 days. Human monocytes, polymorphonuclear leukocytes (PMNs) and lymphocytes were purified from buffy coats of healthy donors, kindly provided by the Centro Immunotrasfusionale, Hospital of Padova. Briefly, for monocyte purification, peripheral blood mononuclear cells (PBMC) were isolated from buffy coats of healthy donors by density gradient centrifugation on Ficoll-Paque Plus (GE Health care), which density is optimized for the isolation of mononuclear cells. Separate monocyte and T-cell fractions were obtained from PBMCs by Percoll density gradient centrifugation (GE Health care); residual lymphocytes were removed by incubation in 2% fetal calf serum (FCS) RPMI at 37 °C and subsequently washed to eliminate non adherent cells. Unless otherwise specified, cells were kept at 37 °C in a humidified atmosphere containing 5% (v/v) CO2 in RPMI-1640 supplemented with 10% FCS. For PMNs purification, the pellet of cells obtained after the centrifugation on Ficoll gradient was subjected to dextran erythrocytes precipitation; residual erythrocytes were removed by hypotonic lysis in 155 mM NH4Cl, 10 mM KHCO3, and […] Na2EDTA at pH 7.4 and cells were cultured in RPMI medium, supplemented with 10% FCS. For lymphocytes preparation, buffy coats were incubated with 50 μl/ml of Rosette Sep® Human T Cell Enrichment Cocktail (StemCell Technologies). Blood was then centrifuged over a Ficoll gradient and cells were cultured in RPMI medium, supplemented with 10% FCS.
(§4) Twenty-four hours before the experiment, A431, HeLa, A549 and CC34-Lu cells were detached by means of trypsin treatment (Gibco), counted and seeded onto a 96 wells/plate (8×10^3 cells/well, Falcon). After purification, monocytes were seeded onto a 96 wells/plate (2×10^6/well) and left to adhere to the plastic; then cells were immediately treated with stimuli. PMNs and lymphocytes (2×10^6 cells/well) and HL60 cells (40×10^3) were seeded onto cell plates and subsequently treated. Different peptides were diluted in culture medium (from 20 μM to 1 μM) and added to the cells. As a […] control cells were treated with medium without stimuli. Twenty-four hours after treatment, the cell supernatant was collected for subsequent assay (LDH assay) and cells were tested using a CellTiter 96® AQueous One Solution Reagent (Promega). Plates were read with an ELISA reader (Amersham Biosciences) at 492 nm. Data were expressed as % of absorbance value compared to untreated cells (assumed as 100% viable). Alternatively, the EC50 (the concentration of drug where 50% of cells died) was calculated for each peptide and each kind of tested cell.
(§5) 50 μl of the cell supernatant was tested with a CytoTox 96® Non-Radioactive Cytotoxicity Assay kit (Promega). EC50 (the concentration of drug that induced the lysis of 50% of the total cell number) was calculated for each peptide and each kind of tested cell.

[7] = as above; assay type: cell-based; settings: human, from MTS and LDH EC50 values, compared with trichogin, all cell models, read-out: reduction of cytocidal effect / cell toxicity (% inhibition)
Procedure: as §2, §3, §4, §5

[8] = after 24 h at 37 °C, broth microdilution in LB, 5×10^5 CFU/ml, ±SE, N≥4, peptide dose range 0–64 µM

SMILES | MIC S. aureus [1, 8] | MIC E. coli ([2]; ATCC 25922, 24 h) | MIC P. aeruginosa ([3]; ATCC 25668, 24 h) | MIC S. epidermis [4, 8] | MIC S. aureus ([1]; ATCC BAA-44, 24 h) | antibacterial activity compared with the K-containing analogs [5] | MIC S. epidermis ([4]; ATCC 700565, 24 h) | cytotoxicity compared with trichogin or the corresponding analog [6] | MIC E. coli [2, 8] | MIC P. aeruginosa [3, 8] | inhibition at 24 h [7] | change of anti S. aureus activity compared with trichogin ([1]; MIC after 24 h, in words)
CCCCCCCC(=O)NC(C)(C)C(=O)NCC(=O)N[C@@H](CC(C)C)C(=O)NC(C)(C)C(=O)N[C@@H](CCCCN)C(=O)NCC(=O)N[C@@H](CC(C)C)C(=O)NC(C)(C)C(=O)NCC(=O)N[C@H](C(=O)N[C@H](CO)CC(C)C)[C@@H](C)CC [K5] (Octanoyl-[Aib]GL[Aib]KGL[Aib]GI[Leu(ol)]) | 1 ± 0 µM (≈ 1.14 µg/mL) | 8 ± 2 µM (≈ 9.1 µg/mL) | >64 µM | 2 ± 0 µM (≈ 2.28 µg/mL) |  |  |  |  |  |  |  | 
CCCCCCCC(=O)N[C@@H](CC(C)C)C(=O)N[C@@H](CCCCN)C(=O)N[C@@H](CC(C)C)C(=O)NC(C)(C)C(=O)NCC(=O)NCC(=O)N[C@@H](CC(C)C)C(=O)NC(C)(C)C(=O)NCC(=O)N[C@H](C(=O)N[C@H](CO)CC(C)C)[C@@H](C)CC [L1K2] (Octanoyl-LKL[Aib]GGL[Aib]GI[Leu(ol)]) |  | 22.9 ± 8.6 µM (≈ 26.7 µg/mL) | >64 µM |  | 4.6 ± 1.5 µM (≈ 5.36 µg/mL) | failed to increase the antibacterial activity | 4.7 ± 1.6 µM (≈ 5.48 µg/mL) | not significantly different |  |  |  | 
CCCCCCCC(=O)N[C@@H](CC(C)C)C(=O)NCC(=O)N[C@@H](CC(C)C)C(=O)NC(C)(C)C(=O)NCC(=O)NCC(=O)N[C@@H](CC(C)C)C(=O)NC(C)(C)C(=O)N[C@@H](CCCCN)C(=O)N[C@H](C(=O)N[C@H](CO)CC(C)C)[C@@H](C)CC [L1K9] (Octanoyl-LGL[Aib]GGL[Aib]KI[Leu(ol)]) | 4.7 ± 1.6 µM (≈ 5.48 µg/mL) |  |  | 4.6 ± 1.5 µM (≈ 5.36 µg/mL) |  | failed to increase the antibacterial activity |  | not significantly different | 41.1 ± 15.6 µM (≈ 47.9 µg/mL) | >64 µM |  | 
CCCCCCCC(=O)N[C@@H](CC(C)C)C(=O)NCC(=O)N[C@@H](CC(C)C)C(=O)N[C@@H](CC(C)C)C(=O)NCC(=O)NCC(=O)N[C@@H](CC(C)C)C(=O)N[C@@H](CC(C)C)C(=O)NCC(=O)N[C@H](C(=O)N[C@H](CO)CC(C)C)[C@@H](C)CC [L1L4L8] (Octanoyl-LGLLGGLLGI[Leu(ol)]) |  |  |  |  |  |  |  |  |  |  | 50 to 70% | 
CCCCCCCC(=O)N[C@@H](CC(C)C)C(=O)NCC(=O)N[C@@H](CC(C)C)C(=O)NC(C)(C)C(=O)NCC(=O)NCC(=O)N[C@@H](CC(C)C)C(=O)N[C@@H](CC(C)C)C(=O)NCC(=O)N[C@H](C(=O)N[C@H](CO)CC(C)C)[C@@H](C)CC [L1L8] (Octanoyl-LGL[Aib]GGLLGI[Leu(ol)]) |  | >64 µM | >64 µM |  | 32 ± 0 µM (≈ 35.9 µg/mL) |  | >64 µM |  |  |  |  | 
CCCCCCCC(=O)NC(C)(C)C(=O)NCC(=O)N[C@@H](CC(C)C)C(=O)N[C@@H](CC(C)C)C(=O)NCC(=O)NCC(=O)N[C@@H](CC(C)C)C(=O)NC(C)(C)C(=O)NCC(=O)N[C@H](C(=O)N[C@H](CO)CC(C)C)[C@@H](C)CC [L4] (Octanoyl-[Aib]GLLGGL[Aib]GI[Leu(ol)]) | >64 µM |  |  | >64 µM |  |  |  |  | >64 µM | >64 µM | 50 to 70% | no such increase
